This is an account of results in ChEMBL document CHEMBL1137221, “Validation of model of cytochrome P450 2D6: an in silico tool for predicting metabolism and inhibition” (J Med Chem, 2004).

Test [1] has as its target T1, Cytochrome P450 2D6 (Homo sapiens, UniProt P10635). As to the kind of experiment: Inhibitory concentration against cytochrome P450 2D6.
Test [2] has as its target T1, Cytochrome P450 2D6. Put plainly: Binding affinity for cytochrome P450 2D6. In kind it is ADME.

T1 sequence (P10635 whole entry): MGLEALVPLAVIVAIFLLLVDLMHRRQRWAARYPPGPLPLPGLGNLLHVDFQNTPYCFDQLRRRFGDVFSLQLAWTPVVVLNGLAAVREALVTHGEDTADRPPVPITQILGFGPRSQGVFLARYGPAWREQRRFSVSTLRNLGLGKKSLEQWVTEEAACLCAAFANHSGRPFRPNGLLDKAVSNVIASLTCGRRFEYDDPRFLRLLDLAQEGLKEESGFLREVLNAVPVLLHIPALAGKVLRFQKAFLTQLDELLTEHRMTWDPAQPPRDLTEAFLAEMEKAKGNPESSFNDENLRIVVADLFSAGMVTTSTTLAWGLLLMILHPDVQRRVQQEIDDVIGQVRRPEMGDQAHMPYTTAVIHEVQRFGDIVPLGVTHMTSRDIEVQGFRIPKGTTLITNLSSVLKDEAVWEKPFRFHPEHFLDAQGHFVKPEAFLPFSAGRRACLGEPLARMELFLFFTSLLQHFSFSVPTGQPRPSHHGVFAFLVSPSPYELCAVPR

Take `NS(=O)(=O)OCCCCCCCOS(N)(=O)=O`: in test [1], the IC50 – broadly, the concentration that inhibits the measured activity by half – is 699 µM. For the molecule `O=C1CC2(CCCCC2)C(=O)C1CC(Cl)CCl` (configuration not stated), the IC50 in test [1] stood at 310 µM. Same read-out and setting: the result for `O=C(O)c1ccc(CNCc2ccccc2)cc1` reads 570 µM.

In test [1], `NCCCc1c(-c2ccccc2)nc(N)[nH]c1=O` came in with an IC50 of 234 µM. Still for that read-out and setting: the result for `O=C(Cn1ccnc1[N+](=O)[O-])N(CCO)CCO` reads 1020 µM. Same read-out and setting: the result for `COC12[C@H](COC(N)=O)C3=C(C(O)=C(C)C(=N)C3=O)N1C[C@H]1[C@@H]2N1C` (some centres not stated) reads 94.3 µM; that for `COc1ccc(S(=O)(=O)N/N=C/C(=O)O)cc1`, 288 µM; that for `Clc1ccc(Cl)c(SCCCN2CCNCC2)c1`, 2.1 µM. On the same count and under the same terms, the result for `CN(C)CCOc1ccc(/C(=C/c2ccccc2)c2ccccc2)cc1` reads 7.2 µM. As to `CC(C)NC(=O)OCc1c(COC(=O)NC(C)C)c(-c2ccc(Cl)c(Cl)c2)n2c1CCC2`, in test [1], the half-inhibitory concentration (IC50) came out at 11 µM. On the same count and under the same terms, the result for `O=CC(NC(=O)N(CCCl)N=O)C(O)C(O)C(O)CO` (configuration not stated) reads 2020 µM; that for `NCC(O)CSCc1ccc(Cl)cc1` (configuration not stated), 8 µM.

For the molecule `COc1ccc2c(c1[N+](=O)[O-])CC[C@@H]1[C@@H]2CC[C@]2(C)C(=O)CC[C@@H]12`, 196 µM corresponded to half-maximal inhibition in test [1] (IC50). Same read-out and setting: the result for `COC(=O)C12OC[C@]34[C@H]([C@@H](O)[C@@H]1O)[C@@]1(C)CC(=O)C(O)=C(C)[C@@H]1C[C@H]3OC(=O)[C@H](OC(=O)/C=C(\C)C(C)C)[C@@H]24` (single isomer, unassigned) [BRUCEANTIN] reads 514 µM. Still for that read-out and setting: the result for `CC(=O)N(C)c1ccc(Nc2cc(C)nc3ccc4[nH]cnc4c23)cc1` [ACODAZOLE] reads 18.1 µM; that for `CN(C)CCN1C(=O)c2cccc3cc(N)cc(c23)C1=O` [AMONAFIDE], 39.6 µM.

The molecule `O=C(O)CCCc1ccc(N(CCCl)CCCl)cc1` [CHLORAMBUCIL] returned a concentration for half-maximal inhibition (IC50) in test [1] of 65.1 µM. Consider `C=C[C@H]1C[N@@]2CC[C@H]1C[C@@H]2[C@@H](O)c1ccnc2ccccc12` [CINCHONINE], for which, in test [1], half-maximal inhibition (IC50) required 1.8 µM. In test [2], the Ki (in general, the dissociation constant of the complex between target and ligand, obtained from inhibition or displacement) was found to be 21 µM.

Take `Nc1ccc2c(c1)CN1C(=O)c3ccccc3C1=N2` [DANIQUIDONE]: the IC50 in test [1] stood at 48 µM.

Take `CCN(CC)CCNc1ccc(CO)c2sc3ccccc3c(=O)c12` [HYCANTHONE]: the midpoint of inhibition in test [1], the IC50, lay at 1.5 µM.

As for `CNCCC=C1c2ccccc2CCc2ccccc21` [NORTRIPTYLINE], the IC50 in test [1] turned out to be 2.6 µM.
